Reference: ChEMBL document CHEMBL1629655, “Affinity of Tomopenem (CS-023) for penicillin-binding proteins in Staphylococcus aureus, Escherichia coli, and Pseudomonas aeruginosa” (Antimicrob Agents Chemother, 2009)
Values after ≈ are worked out from the molar mass of the structure shown.

Experiments:
[1] = Displacement of [14C]benzylpenicillin from PBP1A in Pseudomonas aeruginosa ATCC 15692
Staphylococcus aureus [2] = assay: Antibacterial activity against Staphylococcus aureus SRR2a selected at 2 times MIC of tomopenem by microdilution method; type: functional
Pseudomonas aeruginosa [3] = assay: Ratio of MIC for Pseudomonas aeruginosa PRR4a to MIC for Pseudomonas aeruginosa ATCC 15692; type: functional
Escherichia coli [4] = assay: Antibacterial activity against Escherichia coli NIHJ by microdilution method; type: functional, organism-based
[5] = Displacement of [14C]benzylpenicillin from PBP1 in Staphylococcus aureus ATCC 6538P
Escherichia coli [6] = assay: Antibacterial activity against Escherichia coli EIR4a selected at 4 times MIC of imipenem by microdilution method; type: functional
[7] = Displacement of [14C]benzylpenicillin from PBP5 in Escherichia coli NIHJ
[8] = Displacement of [14C]benzylpenicillin from PBP2 Staphylococcus aureus ATCC 6538P
[9] = Displacement of [14C]benzylpenicillin from PBP4 in Escherichia coli NIHJ
Escherichia coli [10] = assay: Ratio of MIC for Escherichia coli EIR2a to MIC for Escherichia coli NIHJ; type: functional
Escherichia coli [11] = assay: Ratio of MIC for Escherichia coli EIR2b to MIC for Escherichia coli NIHJ; type: functional
Pseudomonas aeruginosa [12] = assay: Antibacterial activity against Pseudomonas aeruginosa ATCC 15692 by microdilution method; type: functional, organism-based
Escherichia coli [13] = assay: Ratio of MIC for Escherichia coli ERR4a to MIC for Escherichia coli NIHJ; type: functional
[14] = Displacement of [14C]benzylpenicillin from PBP 6 in Pseudomonas aeruginosa ATCC 15692
Escherichia coli [15] = assay: Antibacterial activity against Escherichia coli ERR2a selected at 2 times MIC of tomopenem by microdilution method; type: functional
[16] = Displacement of [14C]benzylpenicillin from PBP3 in Pseudomonas aeruginosa ATCC 15692
Escherichia coli [17] = assay: Ratio of MIC for Escherichia coli EIR4a to MIC for Escherichia coli NIHJ; type: functional
Escherichia coli [18] = assay: Antibacterial activity against Escherichia coli EIR2b selected at 2 times MIC of imipenem by microdilution method; type: functional
[19] = Displacement of [14C]benzylpenicillin from PBP6 Escherichia coli NIHJ
[20] = Displacement of [14C]benzylpenicillin from PBP4 in Staphylococcus aureus ATCC 6538P
Pseudomonas aeruginosa [21] = assay: Ratio of MIC for Pseudomonas aeruginosa PIR2a to MIC for Pseudomonas aeruginosa ATCC 15692; type: functional
[22] = Displacement of [14C]benzylpenicillin from PBP 5 in Pseudomonas aeruginosa ATCC 15692
Escherichia coli [23] = assay: Ratio of MIC for Escherichia coli EIR8a to MIC for Escherichia coli NIHJ; type: functional
[24] = Displacement of [14C]benzylpenicillin from PBP1B in Escherichia coli NIHJ
Escherichia coli [25] = assay: Antibacterial activity against Escherichia coli EIR8a selected at 8 times MIC of imipenem by microdilution method; type: functional
[26] = Displacement of [14C]benzylpenicillin from PBP1B in Pseudomonas aeruginosa ATCC 15692
Escherichia coli [27] = assay: Antibacterial activity against Escherichia coli EIR2a selected at 2 times MIC of imipenem by microdilution method; type: functional
[28] = Displacement of [14C]benzylpenicillin from PBP4 in Pseudomonas aeruginosa ATCC 15692
Escherichia coli [29] = assay: Antibacterial activity against Escherichia coli EMR2a selected at 2 times MIC of meropenem by microdilution method; type: functional
Escherichia coli [30] = assay: Ratio of MIC for Escherichia coli EIR4b to MIC for Escherichia coli NIHJ; type: functional
Escherichia coli [31] = assay: Antibacterial activity against Escherichia coli EIR4b selected at 4 times MIC of imipenem by microdilution method; type: functional
Staphylococcus aureus [32] = assay: Ratio of MIC for Staphylococcus aureus SMR2a to MIC for Staphylococcus aureus ATCC 6538P; type: functional
Pseudomonas aeruginosa [33] = assay: Antibacterial activity against Pseudomonas aeruginosa PRR4a selected at 4 times MIC of tomopenem by microdilution method; type: functional
Escherichia coli [34] = assay: Antibacterial activity against Escherichia coli ERR8a selected at 8 times MIC of tomopenem by microdilution method; type: functional
Pseudomonas aeruginosa [35] = assay: Ratio of MIC for Pseudomonas aeruginosa PMR2a to MIC for Pseudomonas aeruginosa ATCC 15692; type: functional
Escherichia coli [36] = assay: Ratio of MIC for Escherichia coli ERR2b to MIC for Escherichia coli NIHJ; type: functional
Staphylococcus aureus [37] = assay: Antibacterial activity against Staphylococcus aureus SMR4a […] MIC of meropenem by microdilution method; type: functional
[38] = Displacement of [14C]benzylpenicillin from PBP3 in Staphylococcus aureus ATCC 6538P
Staphylococcus aureus [39] = assay: Antibacterial activity against Staphylococcus aureus ATCC 6538P by microdilution method; type: functional, organism-based
[40] = Displacement of [14C]benzylpenicillin from PBP1A in Escherichia coli NIHJ
Staphylococcus aureus [41] = assay: Antibacterial activity against Staphylococcus aureus SIR2a selected at 2 times MIC of imipenem by microdilution method; type: functional
Staphylococcus aureus [42] = assay: Ratio of MIC for Staphylococcus aureus SIR2a selected at 2 times MIC of imipenem to MIC for Staphylococcus aureus ATCC 6538P; type: functional
Staphylococcus aureus [43] = assay: Ratio of MIC for Staphylococcus aureus SMR4a to MIC for Staphylococcus aureus ATCC 6538P; type: functional
Escherichia coli [44] = assay: Ratio of MIC for Escherichia coli EMR2a to MIC for Escherichia coli NIHJ; type: functional
Staphylococcus aureus [45] = assay: Ratio of MIC for Staphylococcus aureus SRR2a to MIC for Staphylococcus aureus ATCC 6538P; type: functional
[46] = Displacement of [14C]benzylpenicillin from PBP2 in Escherichia coli NIHJ
Escherichia coli [47] = assay: Antibacterial activity against Escherichia coli ERR2b selected at 2 times MIC of tomopenem by microdilution method; type: functional
[48] = Displacement of [14C]benzylpenicillin from PBP3 in Escherichia coli NIHJ
Pseudomonas aeruginosa [49] = assay: Antibacterial activity against Pseudomonas aeruginosa PMR2a selected at 2 times MIC of meropenem by microdilution method; type: functional
Escherichia coli [50] = assay: Ratio of MIC for Escherichia coli ERR2a selected to MIC for Escherichia coli NIHJ; type: functional
[51] = Displacement of [14C]benzylpenicillin from PBP2 in Pseudomonas aeruginosa ATCC 15692
Pseudomonas aeruginosa [52] = assay: Antibacterial activity against Pseudomonas aeruginosa PIR2a selected at 2 times MIC of imipenem by microdilution method; type: functional
Escherichia coli [53] = assay: Antibacterial activity against Escherichia coli ERR4a selected at 4 times MIC of tomopenem by microdilution method; type: functional
Escherichia coli [54] = assay: Ratio of MIC for Escherichia coli ERR8a to MIC for Escherichia coli NIHJ; type: functional
Staphylococcus aureus [55] = assay: Antibacterial activity against Staphylococcus aureus SMR2a selected at 2 times MIC of meropenem by microdilution method; type: functional

For `C[C@@H](O)[C@H]1C(=O)N2C(C(=O)O)=C(SCCNC=N)C[C@H]12` [IMIPENEM ANHYDROUS], the IC50 [1] was 0.057 µg/mL (≈ 0.19 µM), the MIC (Staphylococcus aureus [2]) was 0.03 µg/mL and the Ratio MIC (Pseudomonas aeruginosa [3]) was 8. It also gave an MBC (Escherichia coli [4]) of 0.25 µg/mL (≈ 0.835 µM), an MIC (Escherichia coli [4]) of 0.25 µg/mL (≈ 0.835 µM) and an IC50 [5] of 0.024 µg/mL (≈ 0.0802 µM). The MIC (Escherichia coli [6]) was 1 µg/mL, the IC50 [7] was 0.34 µg/mL (≈ 1.14 µM) and the IC50 [8] was 0.047 µg/mL (≈ 0.157 µM). It also gave an IC50 [9] of 0.44 µg/mL (≈ 1.47 µM), a Ratio MIC (Escherichia coli [10]) of 4 and a Ratio MIC (Escherichia coli [11]) of 2. It also gave an MBC (Pseudomonas aeruginosa [12]) of 2 µg/mL (≈ 6.68 µM), an MIC (Pseudomonas aeruginosa [12]) of 1 µg/mL (≈ 3.34 µM) and a Ratio MIC (Escherichia coli [13]) of 4. It also gave an IC50 [14] of 0.19 µg/mL (≈ 0.635 µM), an MIC (Escherichia coli [15]) of 1 µg/mL and an IC50 [16] of 0.089 µg/mL (≈ 0.297 µM). The Ratio MIC (Escherichia coli [17]) was 4, the MIC (Escherichia coli [18]) was 0.5 µg/mL and the IC50 [19] was 1 µg/mL (≈ 3.34 µM). It also gave an IC50 [20] of 7.8 ng/mL (≈ 0.0261 µM), a Ratio MIC (Pseudomonas aeruginosa [21]) of 16 and an IC50 [22] of 0.19 µg/mL (≈ 0.635 µM). It also gave a Ratio MIC (Escherichia coli [23]) of 2, an IC50 [24] of 1.1 µg/mL (≈ 3.67 µM) and an MIC (Escherichia coli [25]) of 0.5 µg/mL. The IC50 [26] was 0.078 µg/mL (≈ 0.261 µM), the MIC (Escherichia coli [27]) was 1 µg/mL and the IC50 [28] was 3.2 ng/mL (≈ 0.0107 µM). It also gave an MIC (Escherichia coli [29]) of 1 µg/mL, a Ratio MIC (Escherichia coli [30]) of 4 and an MIC (Escherichia coli [31]) of 1 µg/mL. The Ratio MIC (Staphylococcus aureus [32]) was 4, the MIC (Pseudomonas aeruginosa [33]) was 8 µg/mL and the MIC (Escherichia coli [34]) was 0.5 µg/mL. For the same compound, the Ratio MIC (Pseudomonas aeruginosa [35]) was 16, the Ratio MIC (Escherichia coli [36]) was 4 and the MIC (Staphylococcus aureus [37]) was 0.03 µg/mL. It also gave an IC50 [38] of 0.049 µg/mL (≈ 0.164 µM), an IC50 (Staphylococcus aureus [39]) of 8 ng/mL (≈ 0.0267 µM) and an MBC (Staphylococcus aureus [39]) of 8 ng/mL (≈ 0.0267 µM). For the same compound, the MIC (Staphylococcus aureus [39]) was 8 ng/mL (≈ 0.0267 µM), the IC50 [40] was 0.22 µg/mL (≈ 0.735 µM) and the MIC (Staphylococcus aureus [41]) was 0.03 µg/mL. The Ratio MIC (Staphylococcus aureus [42]) was 4, the ratio (Staphylococcus aureus [43]) was 4 and the Ratio MIC (Escherichia coli [44]) was 4. The Ratio MIC (Staphylococcus aureus [45]) was 4, the IC50 [46] was 0.045 µg/mL (≈ 0.15 µM) and the MIC (Escherichia coli [47]) was 1 µg/mL. For the same compound, the IC50 [48] was 19 µg/mL (≈ 63.5 µM), the MIC (Pseudomonas aeruginosa [49]) was 16 µg/mL and the Ratio MIC (Escherichia coli [50]) was 4. It also gave an IC50 [51] of 0.066 µg/mL (≈ 0.22 µM), an MIC (Pseudomonas aeruginosa [52]) of 16 µg/mL and an MIC (Escherichia coli [53]) of 1 µg/mL. It also gave a Ratio MIC (Escherichia coli [54]) of 2 and an MIC (Staphylococcus aureus [55]) of 0.03 µg/mL.
